Measurements published in patent publication US11591355B2 (Peloton Therapeutics, Inc., priority 2017, dated 2023).

Legend:
[1] = biological target: T1, CD73 on U138 human neuroglioma cells (Homo sapiens, UniProt P21589); assay: CD73 Cell-Based Assay; settings: U138 cells, AMP substrate, 2 hours at 37° C., inorganic phosphate by malachite green
T1 construct: U138 cells were obtained from ATCC and cultured in DMEM with 10% FBS; host or cells: U138 human neuroglioma cells
T1 sequence (P21589 27-549): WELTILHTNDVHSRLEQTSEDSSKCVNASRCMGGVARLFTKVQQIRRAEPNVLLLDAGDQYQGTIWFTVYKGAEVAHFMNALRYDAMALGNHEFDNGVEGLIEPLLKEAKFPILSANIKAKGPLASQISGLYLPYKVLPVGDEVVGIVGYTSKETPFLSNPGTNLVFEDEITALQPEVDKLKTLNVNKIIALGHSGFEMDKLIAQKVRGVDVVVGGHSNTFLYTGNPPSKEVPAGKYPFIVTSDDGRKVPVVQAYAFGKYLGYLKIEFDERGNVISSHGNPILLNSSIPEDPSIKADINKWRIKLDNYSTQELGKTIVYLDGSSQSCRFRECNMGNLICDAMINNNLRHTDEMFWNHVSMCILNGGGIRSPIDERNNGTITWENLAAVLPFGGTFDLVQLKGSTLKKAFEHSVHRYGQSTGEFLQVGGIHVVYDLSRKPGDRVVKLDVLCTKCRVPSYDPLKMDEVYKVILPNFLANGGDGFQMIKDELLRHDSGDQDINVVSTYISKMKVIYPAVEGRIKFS
In short: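 Whole U138 cells washed free of phosphate were incubated with 200 μM AMP (mixture concentration before equal-volume addition) plus compound in HEPES-buffered saline, pH 7.4, for 2 h at 37 °C, 5% CO2. Adenosine-forming activity read as inorganic phosphate released into supernatant by malachite green.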

Human CD73 = biological target: T2, Human CD73 (Homo sapiens, UniProt P21589); assay: CD73 Enzyme Assay; type: biochemical; settings: 0.25 nM hCD73, 25 μM AMP, kinetic read at 360 nm; read-out: CD73 Enzyme Assay IC50
T2 construct: purchased R&D Systems; host or cells: CHO cells
T2 sequence (P21589 27-549): T1 sequence (P21589 27-549)

Row | IC50 [1] | IC50 (Human CD73) | Compound
1 | < 10 nM | < 10 nM | N#Cc1nc(NC2CC(F)(F)C2)c2cnn([C@@H]3O[C@H](CS(=O)(=O)CP(=O)(O)O)[C@@H](O)[C@H]3O)c2n1 [Compound 292, [(2S,3S,4R,5R)-5-[6-cyano-4-[(3,3-difluoro-difluorocyclobutyl)-amino]pyrazolo[3,4-d]-pyrimidin-1-yl]-3,4-dihydroxy-tetrahydro-furan-2-yl]methyl-sulfonylmethylphos-phonic acid]
2 | < 10 nM | < 10 nM | O=P(O)(O)COC[C@H]1O[C@@H](c2csc3c(N4CC5CCCC5C4)nc(Cl)nc23)[C@H](O)[C@@H]1O (stereo partly drawn) [Compound 295, [(2R,3S,4R,5S)-5-[4-(3,3a,4,5,6,6a-hexa-hydro-1H-cyclopenta-[c]pyrrol-2-yl)-2-chloro-thieno[3,2-d]-pyrimidin-7-yl]-3,4-dihydroxy-tetrahydro-furan-2-yl]methoxy-methylphosphonic acid]
3 | < 10 nM | < 10 nM | N#Cc1nc(NC2CCCC2)c2cnn([C@@H]3O[C@H](CS(=O)(=O)CP(=O)(O)O)[C@@H](O)[C@H]3O)c2n1 [Compound 296, (((((2S,3S,4R,5R)-5-(6-cyano-4-(cyclopentylamino)-1H-pyrazolo[3,4-d]pyrimidin-1-yl)-3,4-dihydroxytetrahydrofuran-2-yl)methyl)sulfonyl)methyl)phosphonic acid]
4 | < 10 nM | < 10 nM | O=P(O)(O)COC[C@H]1O[C@@H](c2ccc3c(NC4CCCC4)nc(Cl)nn23)[C@H](O)[C@@H]1O [Compound 298, [(2R,3S,4R,5S)-5-[2-chloro-4-(cyclopentyl-amino)pyrrolo[2,1-f]-[1,2,4]triazin-7-yl]-3,4-dihydroxy-tetrahydro-furan-2-yl]methoxy-methylphosphonic acid]
5 | 10 to 100 nM | 10 to 100 nM | O=P(O)(O)CS(=O)(=O)C[C@H]1O[C@@H](n2ccc3c(NC4CCCC4)nc(C(F)(F)F)nc32)[C@H](O)[C@@H]1O [Compound 303, [(2S,3S,4R,5R)-5-[4-(cyclopentylamino)-2-(trifluoromethyl)-pyrrolo[2,3-d]-pyrimidin-7-yl]-3,4-dihydroxy-tetrahydro-furan-2-yl]methyl-sulfonylmethylphos-phonic acid]
6 | < 10 nM | < 10 nM | N#Cc1nc(NC2CCC2)c2cnn([C@@H]3O[C@H](CS(=O)(=O)CP(=O)(O)O)[C@@H](O)[C@H]3O)c2n1 [Compound 308, [(2S,3S,4R,5R)-5-[6-cyano-4-(cyclobutyl-amino)pyrazolo[3,4-d]-pyrimidin-1-yl]-3,4-dihydroxy-tetrahydro-furan-2-yl]methyl-sulfonylmethylphos-phonic acid]

Continued, compound first:

Row | Compound | IC50 [1] | IC50 (Human CD73)
7 | O=P(O)(O)CS(=O)(=O)C[C@H]1O[C@@H](n2ccc3c(NC4CCCC4)nc(C(F)F)nc32)[C@H](O)[C@@H]1O [Compound 289, [(2S,3S,4R,5R)-5-[4-(cyclopentylamino)-2-(difluoromethyl)-pyrrolo[2,3-d]-pyrimidin-7-yl]-3,4-dihydroxy-tetrahydro-furan-2-yl]methyl-sulfonylmethylphos-phonic acid] | < 10 nM | < 10 nM
8 | C[C@@H](Nc1nc(C#N)nc2c1cnn2[C@@H]1O[C@H](CS(=O)(=O)CP(=O)(O)O)[C@@H](O)[C@H]1O)c1ccc(F)cc1 [Compound 291, [(2S,3S,4R,5R)-5-[6-cyano-4-[[(1R)-1-(4-fluorophenyl)ethyl]-amino]pyrazolo[3,4-d]-pyrimidin-1-yl]-3,4-dihydroxy-tetrahydro-furan-2-yl]methyl-sulfonylmethylphos-phonic acid] | < 10 nM | < 10 nM
9 | N#Cc1nc(N2CCC(F)(F)C2)c2cnn([C@@H]3O[C@H](CS(=O)(=O)CP(=O)(O)O)[C@@H](O)[C@H]3O)c2n1 [Compound 293, [(2S,3S,4R,5R)-5-[6-cyano-4-(3,3-difluoro-pyrrolidin-1-yl)-pyrazolo[3,4-d]-pyrimidin-1-yl]-3,4-dihydroxy-tetrahydro-furan-2-yl]methyl-sulfonylmethylphos-phonic acid] | 10 to 100 nM | 10 to 100 nM
10 | O=P(O)(O)COC[C@H]1O[C@H](c2c[nH]c3c(N4CC5CCCC5C4)nc(Cl)nc23)[C@H](O)[C@@H]1O (stereo partly drawn) [Compound 294, [(2R,3S,4R,5R)-5-[4-(3,3a,4,5,6,6a-hexa-hydro-1H-cyclopenta-[c]pyrrol-2-yl)-2-chloro-5H-pyrrolo[3,2-d]pyrimidin-7-yl]-3,4-dihydroxy-tetrahydro-furan-2-yl]methoxy-methylphosphonic acid] | < 10 nM | 10 to 100 nM
11 | O=P(O)(O)COC[C@H]1O[C@@H](c2c(Br)sc3c(N4CC5CCCC5C4)nc(Cl)nc23)[C@H](O)[C@@H]1O (stereo partly drawn) [Compound 297, [(2R,3S,4R,5S)-5-[4-(3,3a,4,5,6,6a-hexa-hydro-1H-cyclopenta-[c]pyrrol-2-yl)-6-bromo-2-chloro-thieno[3,2-d]-pyrimidin-7-yl]-3,4-dihydroxy-tetrahydro-furan-2-yl]methoxy-methylphosphonic acid] | 100 to 1000 nM | 100 to 1000 nM
12 | N#Cc1nc(N2CC3CCCC3C2)c2cnn([C@@H]3O[C@H](CS(=O)(=O)CP(=O)(O)O)[C@@H](O)[C@H]3O)c2n1 (stereo partly drawn) [Compound 299, [(2S,3S,4R,5R)-5-[4-(3,3a,4,5,6,6a-hexa-hydro-1H-cyclopenta-[c]pyrrol-2-yl)-6-cyano-pyrazolo[3,4-d]-pyrimidin-1-yl]-3,4-dihydroxy-tetrahydro-furan-2-yl]methyl-sulfonylmethylphos-phonic acid] | < 10 nM | < 10 nM
13 | N#Cc1nc(NC2CC3CC3C2)c2cnn([C@@H]3O[C@H](CS(=O)(=O)CP(=O)(O)O)[C@@H](O)[C@H]3O)c2n1 (stereo partly drawn) [Compound 300, [(2S,3S,4R,5R)-5-[4-(3-bicyclo[3.1.0]-hexanylamino)-6-cyano-pyrazolo[3,4-d]-pyrimidin-1-yl]-3,4-dihydroxy-tetrahydro-furan-2-yl]methyl-sulfonylmethylphos-phonic acid] | < 10 nM | 10 to 100 nM
14 | O=P(O)(O)COC[C@H]1O[C@H](c2csc3c(N4CC5CCCC5C4)nc(Cl)nc23)[C@H](O)[C@@H]1O (stereo partly drawn) [Compound 304, [(2R,3S,4R,5R)-5-[4-(3,3a,4,5,6,6a-hexa-hydro-1H-cyclopenta-[c]pyrrol-2-yl)-2-chloro-thieno[3,2-d]-pyrimidin-7-yl]-3,4-dihydroxy-tetrahydro-furan-2-yl]methoxy-methylphosphonic acid] | > 1000 nM | > 1000 nM
15 | O=P(O)(O)COC[C@H]1O[C@@H](c2csc3c(NC4CCCC4)nc(Cl)nc23)[C@H](O)[C@@H]1O [Compound 305, [(2R,3S,4R,5S)-5-[2-chloro-4-(cyclopentyl-amino)thieno[3,2-d]-pyrimidin-7-yl]-3,4-dihydroxy-tetrahydro-furan-2-yl]methoxy-methylphosphonic acid] | 10 to 100 nM | 10 to 100 nM
16 | C[C@H](Nc1nc(C#N)nc2c1cnn2[C@@H]1O[C@H](CS(=O)(=O)CP(=O)(O)O)[C@@H](O)[C@H]1O)c1ccc(F)cc1 [Compound 307, [(2S,3S,4R,5R)-5-[6-cyano-4-[[(1S)-1-(4-fluorophenyl)ethyl]-amino]pyrazolo[3,4-d]pyrimidin-1-yl]-3,4-dihydroxy-tetrahydro-furan-2-yl]methyl-sulfonylmethylphos-phonic acid] | < 10 nM | 10 to 100 nM
